Measurements reported in patent US20080319083A1, “MEDICINE FOR TRANSNASAL ADMINISTRATION” (priority 2006, published 2008).
Structures can show the parent of a compound that is named as a salt. Where two headings read alike, the source gives them in different places.

Legend:
[1] = In vivo intraduodenal administration test of milnacipran hydrochloride (Test Example 3); design: species or system Wistar male rats; conditions: rat
Description: Each rat was fixed in a face-up position on a fixed base, and the left and right jugular veins were exposed to collect blood. The abdominal cavity was incised to take the duodenum out, and the downstream portion of the duodenum was ligated, followed by direct administration of the above-prepared isotonic sodium chloride solution containing milnacipran hydrochloride (dosage 20 mg/kg, concentration 20 mg/mL) to the duodenum from the upstream portion. The time of duodenum administration was defined as 0 minutes, and blood samples were collected using an injection syringe previously treated with heparin with time in an amount of 200 μL per injection. […] The obtained data was analyzed based on the moment analysis to calculate the area under the plasma concentration-time curve (AUC), mean residence time (MRT), and mean absorption time (MAT). The cumulative absorption profile of milnacipran hydrochloride was calculated by the deconvolution method based on kinetic parameters determined from the intravenous administration test for an input function and based on plasma levels after intraduodenal or intranasal administration for an output function.

[2] = Transnasal administration experiment in opened system, plasma pharmacokinetics (Test Example 1); format: in vivo, Wistar male rats
Text: AUC, MRT, MAT were derived from moment analysis. […] Each rat was fixed in a face-up position on a fixed base, and the right jugular vein was exposed to insert a catheter. After the nib of the catheter was indwelled in the atrium dextrum, the opened regions of the right jugular vein was sutured together using the medical suture thread with an attached needle (17 mm, angle ½ black nylon 5-0, Matsuda Sutures). After the sufficient recovery period, each rat was used for experiments. To the rats with the jugular vein catheterization, prepared by the above-described “1. […] Blood was collected via catheter over time using an injection syringe previously treated with heparin. […] After recovering from diethylether anesthesia, the rats was placed in gauges.

[3] = Evaluation of transfer of milnacipran hydrochloride to central nerve system, CSF concentration (Test Example 4); design: species or system Wistar male rats; conditions: in vivo
Description: As an indicator of transfer to the central nerve system, the concentration of a drug in a cerebrospinal fluid (CSF) was measured. The same operations and administrations as Test Example 3 (in vivo mucosal absorption experiment) were performed (n=3) for intravenous administration, intraduodenal administration, and intranasal administration. Then, blood was collected with time from the jugular vein, and after a given length of time, CSF was collected. An injection needle previously cut was adhered to a silicon tube to prepare an instrument, the other end of which was connected to a syringe, and after a given length of time following drug administration, a puncture was made ventrally from the top of the back of the head of a rat to a depth of 5 to 6 mm with the top of the injection needle. Then, the syringe was drawn to collect CSF in an amount of about 200 μL in the silicon tube.
The obtained data was analyzed based on the moment analysis to calculate the area under the cerebrospinal fluid concentration-time curve (AUCCSF). The AUCCSF represents an integrated value of concentrations of milnacipran in CFS, absorbed and transferred to the brain. Transfer of a drug from the general circulation to CSF is controlled by permeation through a blood-brain barrier and is greatly affected by the concentration of the drug in blood. Therefore, in order to consider the effect of permeation through a blood-brain barrier, brain transfer was evaluated by comparing ratios of the concentrations in CSF to the protein unbound drug concentration in plasma at the time of collection of CSF. Meanwhile, the brain transfer ratio (Kpu) was calculated from an area under the CSF concentration-time curve, an area under the plasma concentration-time curve, and a plasma protein unbinding ratio (following Formula 3). A significant test was performed based on the Tukey-Kramer multiple comparison. Note that AUCplasma represents an integrated value of the plasma concentrations of milnacipran absorbed and transferred to blood.

[4] = In vivo intranasal administration test of milnacipran hydrochloride (Test Example 2); design: species or system Wistar male rats
Description: Each rat was fixed in a face-up position on a fixed base and underwent an operation of the airway and esophagus to adjust the physiological conditions to the same conditions as those of the intravenous administration test, to thereby expose the left and right jugular veins. […] An injection syringe previously treated with heparin was used to collect blood from the right jugular vein over time.
The cumulative absorption profile of milnacipran hydrochloride was determined by the deconvolution method using kinetic parameters determined from the intravenous administration test as an input function and plasma levels after transnasal administration as an output function.

[5] = In vivo intravenous administration test of milnacipran hydrochloride (Test Example 2); design: species or system Wistar male rats
Text: Each rat was fixed in a face-up position on a fixed base and underwent an operation of the airway and esophagus, to thereby expose the left and right jugular veins. […]

[6] = In vivo intranasal administration test of milnacipran hydrochloride (Test Example 3); design: species or system Wistar male rats; conditions: i.n. 20 mg/kg
Description: Each rat was fixed in a face-up position on a fixed base, and the left and right jugular veins were exposed to collect blood. […] The time of intranasal administration was defined as 0 minutes, and blood samples were collected using an injection syringe previously treated with heparin with time in an amount of 200 μL per injection.
The obtained data was analyzed based on the moment analysis to calculate the area under the plasma concentration-time curve (AUC), mean residence time (MRT), and mean absorption time (MAT). The cumulative absorption profile of milnacipran hydrochloride was calculated by the deconvolution method based on kinetic parameters determined from the intravenous administration test for an input function and based on plasma levels after intraduodenal or intranasal administration for an output function.

[7] = in vivo; design: species or system Wistar male rats; conditions: male, Wistar, rat, iv, 20 mg/kg
Description: Each rat was fixed in a face-up position on a fixed base, and the left and right jugular veins were exposed to collect blood. The rats underwent an operation of the airway and esophagus to adjust the physiological conditions to the same conditions as those of the intranasal administration test, and the above-prepared isotonic sodium chloride solution containing milnacipran hydrochloride (dosage 20 mg/kg, concentration 20 mg/mL) was administered from the right jugular vein, followed by collection of blood using an injection syringe previously treated with heparin with time in an amount of 200 μL per injection. […] The obtained data was analyzed based on the moment analysis to calculate the area under the plasma concentration-time curve (AUC), mean residence time (MRT), and mean absorption time (MAT). The cumulative absorption profile of milnacipran hydrochloride was calculated by the deconvolution method based on kinetic parameters determined from the intravenous administration test for an input function and based on plasma levels after intraduodenal or intranasal administration for an output function.

[8] = Transnasal administration experiment in closed system, plasma pharmacokinetics (Test Example 1)
Description: To 100 μL of plasma was added 300 μL of NH4Cl (pH 9), and the mixture was stirred for 30 seconds. Then, 500 μL of chloroform/2-isopropanol/n-heptane (60/14/26) was added, and the mixture was shaken for 2 minutes and centrifuged (4° C., 15,000 rpm, 5 min).
The chloroform layer (lower layer) obtained by centrifugation was transferred to another microtube, and the solvent was removed with flowing nitrogen. All the solvents were removed, and the extract was dissolved in 100 μL of a buffer used as a mobile phase for HPLC. Then, the solution was dispensed into a glass tube and injected to HPLC in an amount of 30 μL to measure the concentration of milnacipran hydrochloride.
The intravenous maximum plasma concentration (Cmax), maximum plasma concentration time (Tmax), area under the plasma concentration-time curve (AUC) and absorption ratio (F) were calculated. The area under the plasma concentration-time curve (AUC) was calculated from the trapezoid formula AUC represents an integrated value of the concentrations of plasma milnacipran absorbed and transferred to blood.
The obtained data was analyzed based on the nonlinear least-squares method program (algorithm: Damping Gauss-Newton method). AUC, MRT, MAT were derived from moment analysis. Meanwhile, the relative rate of the retention in the nasal cavity was evaluated by Formula (1) below.
A solution of urethane in isotonic sodium chloride solution (dosage 1.0 g/kg, 25 w/v %) was administered intraperitoneally to Wistar male rats, and the rats were anaesthetized: Each rat was fixed on a fixed base in a face-up position, and then the airway and esophagus surgeries was performed on the rat in according to the method of Hirai et. al (J. Pharm. Sci. 69:1411-1413 (1980)) to thereby expose the left and right jugular veins. The solution of milnacipran hydrochloride in isotonic sodium chloride solution was administered to the left the nasal cavity using a microsyringe, the top of which was attached to a silicone tube (dosage 20 mg/kg, concentration 100 mg/mL). Blood was corrected over time from the right jugular using a syringe previously treated with heparin. The blood samples were collected in an amount of 0.2 mL per injection, just 0 minute before transnasal administration, and 5, 10, 20, 30, 60, 90, 120, 180, 240, 300 and 360 minutes after the transnasal administration respectively. The collected blood samples were immediately centrifuged at 4° C. and 15,000 rpm (17,860 g) for 5 minutes, to thereby yield plasma samples (0.1 mL).

[9] = male, Wistar, in vivo, 20 mg/kg
[10] = male, Wistar, in vivo, inhaled or intranasal, rat plasma, transnasal 20 mg/kg, opened system
[11] = male, Wistar, rat, iv, 20 mg/kg
[12] = male, Wistar, rat, in vivo, iv, 20 mg/kg
[13] = male, Wistar, in vivo, inhaled or intranasal, rat plasma
[14] = male, Wistar, rat, in vivo, inhaled or intranasal, 20 mg/kg

CCN(CC)C(=O)C1(c2ccccc2)CC1CN (racemic) [milnacipran hydrochloride, cis-(±)-2-(aminomethyl)-N,N-diethyl-1-phenyl-cyclopropanecarboxyamide]
AUC(0-inf) [1, 9]: 7000 ng·h/mL | Cmax [1, 9]: 3070 ng/mL | MRT inf [1, 9]: 1.89 h | Tmax [1, 9]: 1 h | F∞ ([1]; i.d. 20 mg/kg): 70.8% | AUC(0-inf) [2, 10]: 6120 ng·h/mL | Cmax [2, 10]: 3040 ng/mL | MRT inf [2, 10]: 1.77 h | Tmax [2, 10]: 20 min | Fo/Fc (relative rate of the retention in the nasal cavity) ([2]; male, Wistar, rat, in vivo): 72.8% | F∞ ([2]; rat, transnasal 20 mg/kg, opened system): 61.9% | Cmax ([3]; male, Wistar, inhaled or intranasal, rat CSF, i.n. 20 mg/kg, read-out: Cmax (maximum CSF concentration)): 4020 ng/mL | Tmax ([3]; male, Wistar, inhaled or intranasal, rat CSF, i.n. 20 mg/kg, read-out: Tmax (time-to-maximum CSF concentration) (converted)): 20 min | AUC ([3]; male, Wistar, inhaled or intranasal, rat plasma, i.n. 20 mg/kg, read-out: AUCPlasma (converted)): 8400 ng·h/mL | AUC ([3]; male, Wistar, rat, 20 mg/kg): 7000 ng·h/mL | Cmax ([3]; male, Wistar, rat, 20 mg/kg): 1010 ng/mL | Tmax ([3]; male, Wistar, rat, 20 mg/kg): 60 min | ratio of plasma concentration and CSF concentration ([3]; male, Wistar, rat, 20 mg/kg): significantly increased up to 30 minutes after administration | AUC [3, 11]: 9890 ng·h/mL | AUCCSF [3, 11]: 13727.9 ng·min/mL | Cmax [3, 11]: 2220 ng/mL | Tmax [3, 11]: 10 min | Kp ([3]; male, Wistar, rat, iv, 20 mg/kg, Kpu (brain transfer ratio)): 0.028 | CSF Cmax in intranasal administration relative to intraduodenal administration ([3]; rat, 20 mg/kg): four times larger than that in intraduodenal administration | CSF Cmax in intranasal administration relative to intravenous administration ([3]; rat, 20 mg/kg): twice larger than that in intravenous administration | ratio of plasma concentration and CSF concentration ([3]; rat, 20 mg/kg): almost constant | AUC(0-inf) ([4]; male, Wistar, in vivo, inhaled or intranasal, rat plasma, i.n. 10 mg/kg): 4770 ng·h/mL | AUC(0-t) ([4]; male, Wistar, in vivo, inhaled or intranasal, rat plasma, i.n. 10 mg/kg, 0 to 7 hours, read-out: AUC0-7 (converted)): 4380 ng·h/mL | Tmax ([4]; male, Wistar, in vivo, rat plasma, i.n. 10 mg/kg): 20 min | Cmax ([4]; male, Wistar, in vivo, rat plasma, i.n. 10 mg/kg, 50 mg/mL (Example 5)): 5270 ng/mL | F0-7 ([4]; rat, i.n. 10 mg/kg vs i.v. 20 mg/kg, 0 to 7 hours): 90.41% | AUC(0-inf) [5, 12]: 9680 ng·h/mL | AUC(0-t) [5, 12]: 9430 ng·h/mL | Vd [5, 12]: 0.123 L | clearance [5, 12]: 2.69 mL/min | B ([5]; rat plasma, i.v. 20 mg/kg): 5580.51 ng/mL | t1/2α ([5]; rat plasma, i.v. 20 mg/kg): 6.221 min | t1/2β ([5]; rat plasma, i.v. 20 mg/kg): 64.252 min | α ([5]; rat plasma, i.v. 20 mg/kg): 0.1114 min⁻¹ | β ([5]; rat plasma, i.v. 20 mg/kg): 0.01079 min⁻¹ | A ([5]; rat plasma, i.v. 20 mg/kg, two-compartment parameter): 7085.09 ng/mL | V1 ([5]; rat, i.v. 20 mg/kg): 67.74 mL | V2 ([5]; rat, i.v. 20 mg/kg): 55.64 mL | k10 ([5]; rat, i.v. 20 mg/kg): 0.0218 min⁻¹ | k12 ([5]; rat, i.v. 20 mg/kg): 0.0453 min⁻¹ | k21 ([5]; rat, i.v. 20 mg/kg): 0.0551 min⁻¹ | AUC(0-inf) [6, 13]: 8400 ng·h/mL | Cmax [6, 13]: 5120 ng/mL | MRT inf [6, 13]: 1.62 h | Tmax [6, 13]: 20 min | F∞ ([6]; rat): 84.9% | AUC(0-inf) [7]: 9890 ng·h/mL | MRT inf [7]: 1.34 h | AUC(0-inf) [8, 14]: 8400 ng·h/mL | Cmax [8, 14]: 5120 ng/mL | Tmax [8, 14]: 20 min | MRT inf ([8]; male, Wistar, rat, in vivo, inhaled or intranasal, 20 mg/kg, MRT∞, rat plasma, transnasal 20 mg/kg, closed system): 1.88 h | MRT∞ ([8]; rat plasma, transnasal 20 mg/kg, closed system, listed as Control): 97.2 min | F∞ ([8]; rat, transnasal 20 mg/kg, closed system, vs i.v. 20 mg/kg): 84.9%
